In brackets after ≈: the same amount, converted by molar mass. Starred links: 1 amine or outer side, 2 acyl side, 3 side chain; linkers in the order of their positions; H or OH if unused. Non-standard residues stand in square brackets, D forms with d. Residues, ends and D or L forms follow the SMILES beside them. X1 = CC[C@@H](C)[C@@H](O[*:1])C(=O)[*:2]; NMeVal(β-OH) = CN[C@H](C(=O)O)C(C)(C)O; NMeF = CN[C@@H](Cc1ccccc1)C(=O)O; NMeV = CN[C@H](C(=O)O)C(C)C
Legend:
[1] = tested on: Toxoplasma gondii; assay: Antiparasitic activity against Toxoplasma gondii RH; type: functional, organism-based
[2] = biological target: T1, Bifunctional dihydrofolate reductase-thymidylate synthase (Toxoplasma gondii, UniProt Q07422); assay: Inhibition of Toxoplasma gondii thymidylate synthase
T1 sequence (Q07422 whole entry): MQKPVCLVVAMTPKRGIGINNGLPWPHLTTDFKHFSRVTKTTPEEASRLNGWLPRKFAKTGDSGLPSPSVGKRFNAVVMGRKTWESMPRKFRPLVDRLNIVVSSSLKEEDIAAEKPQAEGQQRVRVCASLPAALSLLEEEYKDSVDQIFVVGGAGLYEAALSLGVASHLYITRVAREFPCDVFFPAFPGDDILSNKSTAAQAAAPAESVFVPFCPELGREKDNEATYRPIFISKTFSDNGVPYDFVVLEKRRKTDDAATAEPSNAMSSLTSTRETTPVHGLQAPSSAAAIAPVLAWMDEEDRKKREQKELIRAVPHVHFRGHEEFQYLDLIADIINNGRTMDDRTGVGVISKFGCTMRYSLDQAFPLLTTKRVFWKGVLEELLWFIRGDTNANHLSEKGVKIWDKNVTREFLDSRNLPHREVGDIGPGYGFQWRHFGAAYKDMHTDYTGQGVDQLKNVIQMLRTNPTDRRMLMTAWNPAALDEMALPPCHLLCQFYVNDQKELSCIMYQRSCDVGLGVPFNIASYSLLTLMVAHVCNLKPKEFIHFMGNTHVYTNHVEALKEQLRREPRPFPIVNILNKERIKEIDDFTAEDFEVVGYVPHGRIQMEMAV

[3] = tested on: Toxoplasma gondii; assay: Antiparasitic activity against Toxoplasma gondii RH infected in human HFF cells assessed as reduction in parasitic growth; type: functional, organism-based
[4] = Cytotoxicity against African green monkey Vero cells assessed as reduction in cell viability by MTT assay; type: toxicity, cell-based; conditions: African green monkey (Chlorocebus sabaeus)
[5] = biological target: T1, Bifunctional dihydrofolate reductase-thymidylate synthase; assay: Inhibition of Toxoplasma gondii Dihydrofolate reductase
[6] = Cytotoxicity against African green monkey Vero cells by MTT assay; type: toxicity, cell-based; conditions: African green monkey (Chlorocebus sabaeus)
[7] = Inhibition of Toxoplasma gondii Farnesyl pyrophosphate synthase
[8] = tested on: Toxoplasma gondii; assay: Antiparasitic activity against Toxoplasma gondii RH tachyzoites infected in human HFF cells assessed as parasitic growth inhibition; type: functional, organism-based
[9] = tested on: Toxoplasma gondii; assay: Antiparasitic activity against Toxoplasma gondii RH infected in human HFF cells; type: functional, organism-based
[10] = tested on: Toxoplasma gondii; assay: Antiparasitic activity against Toxoplasma gondii; type: functional, organism-based

C=C(C)[C@@H]1CC[C@]2(CO)CC[C@]3(C)[C@H](CC[C@@H]4[C@@]5(C)CCC(=O)C(C)(C)[C@@H]5CC[C@]43C)[C@@H]12 [BETULONE] gave an IC50 [1] of 2.7 µM.

Compound C[C@H]1[C@H](N2CCS(=O)(=O)CC2)O[C@@H]2O[C@@]3(C)CC[C@H]4[C@H](C)CC[C@@H]1[C@@]24OO3 [ARTEMIFONE] has an IC50 [2] of 120 nM.

Work on N=C(N)N/N=C/c1c(Cl)cccc1Cl [GUANABENZ] yielded an IC50 [3] of 6 µM.

Work on C[C@H](NC(=O)OC(C)(C)C)C(=O)OC1O[C@@H]2O[C@@]3(C)CC[C@H]4[C@H](C)CC[C@@H]([C@H]1C)[C@@]24OO3 (stereo not given in full) yielded an IC50 [2] of 41000 nM.

In the case of COC(=O)/C=C(\C)CCC=C(C)C, the IC50 [4] is reported as 9 µg/mL (≈ 49.4 µM).

Compound Cc1ccc(CSc2ncnc3c2ncn3[C@@H]2C[C@H](CO)[C@@H](O)[C@H]2O)cc1 has an IC50 [5] of 11.9 nM.

For C/C(=N\Nc1nc(-c2ccc(Cl)c(Cl)c2)cs1)c1ccc(Nc2nc(N)nc(N)n2)cc1, the IC50 [6] was 14.9 µg/mL.

CC1(C)N=C(N)N=C(N)N1OCCCOc1ccc(OC(F)(F)F)cc1Cl gave an IC50 [5] of 20 nM.

In the case of CC[C@]1(C)NC(=O)[C@H](CCCCCC(=O)[C@@H](C)OC(=O)Oc2ccccc2)NC(=O)[C@H]2C[C@H](C)CN2C(=O)[C@H](Cc2ccccc2)NC1=O, the IC50 [7] is reported as 11.3 nM.

Compound Oc1ccc(-c2ccc3c(O)cc(O)cc3[o+]2)cc1 has an IC50 [1] of 1.08 µg/mL.

Compound O=C1CCC[C@@H]2[C@H]3CCCN4CCC[C@@H](CN12)[C@@H]34 [MATRINE] has an IC50 [8] of 1010 µM.

Compound C=CCSSSC has an IC50 [4] of 66 µg/mL (≈ 433 µM).

C=CCc1cc(OC)c(O[C@@H](C)[C@H](O)c2ccc(O)c(OC)c2)c(OC)c1 gave an IC50 [1] of 32.4 µg/mL.

Compound CC[C@]1(C)NC(=O)[C@H](CCCCCC(=O)[C@@H](C)OC(C)=O)NC(=O)[C@H]2C[C@H](C)CN2C(=O)[C@H](Cc2ccccc2)NC1=O has an IC50 [7] of 10.2 nM.

In the case of C=CCSSSCC=C [ALLITRIDIN], the IC50 [4] is reported as 28 µg/mL (≈ 157 µM).

O=C(c1ccccc1O)c1[nH]c(Cl)c(Cl)c1-n1c(C(=O)c2ccccc2O)cc(Cl)c1Cl showed an IC50 [5] of 310 nM.

With CC(C)=CCC/C(C)=C/C=O [CITRAL] the IC50 [4] was 9 µg/mL (≈ 59.1 µM).

For O=C(CCCCSc1nc(-c2ccc(-c3ccccc3)cc2)cc(=O)[nH]1)NO, the IC50 [7] was 34 nM.

Compound C[C@H]1[C@H](C)CC[C@]2(C(=O)Nc3nnn[nH]3)CC[C@]3(C)C(=CC[C@@H]4[C@@]5(C)CCC(=O)C(C)(C)[C@@H]5CC[C@]43C)[C@H]12 (single isomer, unassigned) has an IC50 [1] of 219 µM.

With CC(C)(C)[Si](C)(C)O[C@@H]1C[C@@H](/C=C\I)N2CCCC[C@]12C the IC50 [8] was 3.9 µM.

Work on CC1=CC[C@H]2[C@H]3[C@@H]1[C@]2(C)CC[C@H]3C(C)C yielded an IC50 [4] of 9.94 µg/mL (≈ 48.6 µM).

With C=CCC1[C@H](O[Si](C)(C)C(C)(C)C)C[C@@H](C(=O)OC)N1CC=C (stereo not given in full) the IC50 [8] was 5.6 µM.

In the case of CCCCCCCCCCS(=O)(=O)CC(P(=O)(O)O)P(=O)(O)O, the IC50 [7] is reported as 110 nM.

With Oc1cc(O)c2ccc(-c3ccc(O)c(O)c3)[o+]c2c1 [LUTEOLINIDIN] the IC50 [1] was 0.66 µg/mL.

For COc1ccc2c3ccnc(C)c3n(C)c2c1, the IC50 [8] was 1.8 µM.

With Cn1cc(-c2ccc3c(c2)CCN3C(=O)Cc2cccc(C(F)(F)F)c2)c2c(N)ncnc21 the IC50 [3] was < 1 µM.

In the case of O=c1cc(-c2cccc3c2Sc2ccccc2S3)oc(N2CCOCC2)c1 [KU-55933], the IC50 [5] is reported as 2.15 nM.

CC[C@@H](C)[C@H]1OC(=O)[C@H](C(C)(C)O)N(C)C(=O)[C@H](CC(C)C)NC(=O)[C@H](C(C)C)N(C)C(=O)[C@H]([C@@H](C)CC)NC(=O)[C@@H]2CCCN2C(=O)[C@H](Cc2ccccc2)N(C)C(=O)[C@H](Cc2ccccc2)NC(=O)[C@H](C(C)C)N(C)C1=O [BASIFUNGIN] (cyclo(F[NMeF]PI[NMeV]L[NMeVal(β-OH)][X1][NMeV])) showed an IC50 [5] of 300 nM.

CC1(C)CC[C@]2(C(=O)O)CC[C@]3(C)C(=CC[C@@H]4[C@@]5(C)CC[C@H](O)[C@@](C)(CO)[C@@H]5CC[C@]43C)[C@@H]2C1 [HEDERAGENIN] gave an IC50 [1] of 548 µM.

C/C=C/c1cc(OC)c2c(c1)[C@@H](C)[C@H](c1ccc3c(c1)OCO3)O2 [LICARINE B] gave an IC50 [1] of 14 µg/mL.

In the case of Fc1ccc(-c2csc(N/N=C/C3CC3)n2)cc1, the IC50 [9] is reported as 18.1 µg/mL (≈ 69.2 µM) and the IC50 [6] is reported as 18 µg/mL.

COc1ccc(/C(COc2ccc(F)cc2)=N\NC(N)=S)cc1 showed an IC50 [10] of 1090 nM and an IC50 [6] of 1090 nM.

Work on O=C(c1cc(Br)c(F)[nH]1)c1cc(Cl)cc(Cl)c1O yielded an IC50 [5] of 170 nM.

For O=C1C=C2C=C[C@@H]3C[C@@]2(O1)[C@H]1CCCCN31 [SECURININE], the IC50 [8] was 9.8 µM.

For C=CCSSCC=C [DIALLYLDISULFIDE], the IC50 [4] was 66.9 µg/mL (≈ 457 µM).

COc1cccc(CC(=O)Nc2ccc(C(=O)NO)cc2)c1 gave an IC50 [7] of 560 nM.

In the case of O=C(c1ccccc1O)c1[nH]c(Cl)c(Cl)c1-n1c(C(=O)c2ccc(Cl)cc2O)cc(Cl)c1Cl, the IC50 [5] is reported as 160 nM.

For COc1cc(OC)c2ccc(-c3ccc(O)cc3)[o+]c2c1, the IC50 [1] was 0.53 µg/mL.

With Cc1cc(C)c(O)c(C(=O)c2cc(Br)c(Br)[nH]2)c1 the IC50 [5] was 90 nM.

Compound CCCCCCNCC(O)(P(=O)(O)O)P(=O)(O)O has an IC50 [7] of 4700 nM.

In the case of O=c1c2ccc(Oc3ccc(OC(F)(F)F)cc3)cc2[nH]c2cc(Cl)cc(F)c12, the IC50 [8] is reported as 0.03 µM.

COc1cc(-c2cc(=O)c3c(O)cc(O)cc3o2)cc(OC)c1O [TRICIN] gave an IC50 [1] of 12.9 µg/mL.

For O=C1CCC[C@@H]2[C@H]3CCC[N+]4([O-])CCC[C@@H](CN12)[C@@H]34 (stereo not given in full) [OXYMATRINE], the IC50 [8] was 843 µM.

In the case of C[C@H]1[C@H](N2CCSCC2)O[C@@H]2O[C@@]3(C)CC[C@H]4[C@H](C)CC[C@@H]1[C@@]24OO3 [ARTEMISIDE], the IC50 [2] is reported as 100 nM.

C=CCC1[C@H](O[Si](C)(C)C(C)(C)C)C[C@@H](C(=O)OC)N1C(=O)OC(C)(C)C (stereo not given in full) showed an IC50 [8] of 3.9 µM.

For COc1cc(O)c2ccc(-c3ccc(O)cc3)[o+]c2c1, the IC50 [1] was 1.48 µg/mL.

NC(=S)N/N=C(/COc1ccc(F)cc1)c1ccc(Cl)cc1 gave an IC50 [10] of 1190 nM and an IC50 [6] of 1190 nM.
